Results published in patent US8410130B2, “Synthesis of 8H-3A-aza-cyclopenta [A ]indenes and 5,10-dihydropyrrolo[1,2-B]isoquinolines derivatives and their use as antitumor therapeutic agents” (Academia Sinica, priority 2007, dated 2013).
Read-outs that look alike come from different tables or passages of the source.

Key:
[1] = tested on: CCRF-CEM human lymphoblastic leukemia cells; experiment: In vitro cytotoxicity, XTT assay, 72-hr incubation; type: cell-based
Description: (§1) Human colon carcinoma HCT-116 cells, human prostate adenocarcinoma PC-3 and adenocarcinoma SK-OV-3 cells were obtained from American Type Culture Collection (ATCC, Rockville, Md.). Human mammary carcinoma (MX-1) tumor cells were obtained from MSKCC cell bank. The CCRF-CEM human lymphoblastic leukemia cells and their vinblastine resistant subline (CCRF-CEM/VBL, 680-fold resistance in vitro) were obtained from Dr. William Beck of the University of Illinois, Chicago, and CCRF-CEM/Taxol (330-fold resistance in vitro). Resistant cells CCRF-CEM/taxol were produced by exposing the parent cells to increasing sublethal concentration (IC50-IC90) of paclitaxel for six months.
(§2) In preparation for in vitro cytotoxicity assays, cells were cultured at an initial density 2-5×10^4 cells per milliliter. They were maintained in a 5% CO2-humidified atmosphere at 37° C. in RPMI medium 1640 (GIBCO/BRL) containing penicillin (100 units/mL), streptomycin (100 μg/mL, GIBCO/BRL), and 5% heat-inactivated FBS. For cells grown in suspension (such as CCRF-CEM and its sublines), cytotoxicity was measured, by using XTT microculture method in 96-well microtiter plates (Scudiero D A et al., Cancer Res. 1988, 48, 4827-4833). For solid tumor cells growing in a monolayer (such as MX-1 and HCT-116), cytotoxicity of the drug was determined, in duplicate, in 96-well microtiter plates by using the sulforhodamine B method (Skehan P et al., J. Natl. Cancer Inst 1990, 82, 1107-1112). For both methods, the absorbance of each well was measured with a microplate reader (Power Wave XS, Bio-Tek, Winooski, Vt.) after 72-hr incubation as described previously (Chou T-C et al., Proc. Natl. Acad. Sci. USA 2001, 98, 8113-8118). Dose-effect relationship data from 6 to 7 concentrations of each drug, in duplicate, were analyzed by using a computer program (Chou T-C et al., ComboSyn, Inc., Paramus, N J. 2005) based on the median-effect principle and plot (Chou T-C et al., Adv. Enzyme Regul. 1984, 22, 27-55; Chou T-C, Pharmacol. Rev. 2006, 58, 621-681).
(§3) The IC50 is defined by the concentration required to inhibit tumor cell growth by 50%. […] The growth inhibition of the compounds disclosed herein against human lymphoblastic leukemic cells (CCRF-CEM) and its drug-resistant sublines (resistant to vinblastine and taxol, CCRF-CEM/VBL and CCRF-CEM/taxol, respectively) is also shown in Table 5. […] Thus, the compounds disclosed herein are effective against multiple drug resistant tumors.

CCRF-CEM/VBL = experiment: In vitro cytotoxicity, XTT assay, vinblastine resistant subline; type: cell-based, human; conditions: for IC50: XTT assay, 72-hr incubation; for fold of cross-resistant, CCRF-CEM/VBL vs IC50 of the parent cell line: numbers in brackets
Description: as §1, §2, §3

CCRF-CEM/Taxol = experiment: In vitro cytotoxicity, XTT assay, taxol resistant subline; type: cell-based, human; conditions: for IC50: XTT assay, 72-hr incubation; for fold of cross-resistant, CCRF-CEM/Taxol vs IC50 of the parent cell line: numbers in brackets
Description: as §1, §2, §3

[2] = tested on: Human colon carcinoma HCT-116 cells; experiment: In vitro cytotoxicity, sulforhodamine B (SRB) assay; type: cell-based
Description: as §1, §2, §3

[3] = tested on: Human mammary carcinoma (MX-1) tumor cells; experiment: as above; type: cell-based; conditions: 72-hr incubation
Description: as §1, §2, §3

[4] = Homo sapiens, HCT-116, 72-hr incubation

## OCc1c(CO)c(-c2ccc(Cl)cc2)n2c1Cc1ccccc1-2 [DA-1003, (3-(4-Chlorophenyl)-2-hydroxymethyl-8H-3a-aza-cyclopenta[a]inden-1-yl)methanol]
[1]; Homo sapiens, CCRF-CEM
  IC50: 4.27 µM
CCRF-CEM/VBL; Homo sapiens, CCRF-CEM
  IC50: 2.53 µM
CCRF-CEM/VBL
  fold of cross-resistant, CCRF-CEM/VBL vs IC50 of the parent cell line: [0.59x]
CCRF-CEM/Taxol; Homo sapiens, CCRF-CEM
  IC50: 4.22 µM
CCRF-CEM/Taxol
  fold of cross-resistant, CCRF-CEM/Taxol vs IC50 of the parent cell line: [1.00x]
[2]; [4]
  IC50: 5.59 µM
[3]; Homo sapiens
  IC50: 6.13 µM

## COc1ccc(-c2c(CO)c(CO)c3n2-c2ccccc2C3)cc1 [DA-1005, (2-Hydroxymethyl-3-(4-methoxyphenyl)-8H-3a-aza-cyclopenta[a]inden-1-yl)methanol]
[1]; Homo sapiens, CCRF-CEM
  IC50: 1.16 µM
CCRF-CEM/VBL; Homo sapiens, CCRF-CEM
  IC50: 1.67 µM
CCRF-CEM/VBL
  fold of cross-resistant, CCRF-CEM/VBL vs IC50 of the parent cell line: [1.4x]
CCRF-CEM/Taxol; Homo sapiens, CCRF-CEM
  IC50: 1.66 µM
CCRF-CEM/Taxol
  fold of cross-resistant, CCRF-CEM/Taxol vs IC50 of the parent cell line: [1.4x]
[2]; [4]
  IC50: 5.83 µM
[3]; Homo sapiens
  IC50: 10.8 µM

## OCc1c(CO)c(-c2ccccc2)n2c1Cc1ccccc1-2 [DA-1011, (2-hydroxymethyl-3-phenyl-8H-3a-azacyclopenta[a]inden-1-yl)-methanol]
[1]; Homo sapiens, CCRF-CEM
  IC50: 0.252 µM
CCRF-CEM/VBL; Homo sapiens, CCRF-CEM
  IC50: 0.213 µM
CCRF-CEM/VBL
  fold of cross-resistant, CCRF-CEM/VBL vs IC50 of the parent cell line: [0.85x]
CCRF-CEM/Taxol; Homo sapiens, CCRF-CEM
  IC50: 0.224 µM
CCRF-CEM/Taxol
  fold of cross-resistant, CCRF-CEM/Taxol vs IC50 of the parent cell line: [0.89x]
[2]; [4]
  IC50: 1.85 µM
[3]; Homo sapiens
  IC50: 1.35 µM

## CNC(=O)OCc1c(COC(=O)NC)c(-c2ccccc2)n2c1Cc1ccccc1-2 [DA-1022, Methylcarbamic acid 2-methylcarbamoyloxymethyl-3-phenyl-8H-3a-aza-cyclopenta[a] inden-1-ylmethylester]
[1]; Homo sapiens, CCRF-CEM
  IC50: 0.357 µM
CCRF-CEM/VBL; Homo sapiens, CCRF-CEM
  IC50: 1.62 µM
CCRF-CEM/VBL
  fold of cross-resistant, CCRF-CEM/VBL vs IC50 of the parent cell line: [4.5x]
CCRF-CEM/Taxol; Homo sapiens, CCRF-CEM
  IC50: 0.556 µM
CCRF-CEM/Taxol
  fold of cross-resistant, CCRF-CEM/Taxol vs IC50 of the parent cell line: [1.6x]
[2]; [4]
  IC50: 0.761 µM
[3]; Homo sapiens
  IC50: 5.92 µM

## OCc1c(CO)c(-c2ccc(F)cc2)n2c1Cc1ccccc1-2 [DA-1024, (3-(4-Flourophenyl)-2-hydroxymethyl-8H-3a-aza-cyclopenta[a]inden-1-yl)methanol]
[1]
  IC50: 4.25 µM
CCRF-CEM/VBL
  IC50: 4.07 µM
  fold of cross-resistant, CCRF-CEM/VBL vs IC50 of the parent cell line: [0.96x]
CCRF-CEM/Taxol
  IC50: 11 µM
  fold of cross-resistant, CCRF-CEM/Taxol vs IC50 of the parent cell line: [2.6x]
[2]; 72-hr incubation
  IC50: 8.07 µM
[3]
  IC50: 22.3 µM

## OCc1c(CO)c(-c2ccc(F)c(F)c2)n2c1Cc1ccccc1-2 [DA-1025, (3-(3,4-Diflourophenyl)-2-hydroxymethyl-8H-3a-aza-cyclopenta[a]inden-1-yl)methanol]
[1]
  IC50: 4.91 µM
CCRF-CEM/VBL
  IC50: 7.27 µM
  fold of cross-resistant, CCRF-CEM/VBL vs IC50 of the parent cell line: [1.98x]
CCRF-CEM/Taxol
  IC50: 7.78 µM
  fold of cross-resistant, CCRF-CEM/Taxol vs IC50 of the parent cell line: [1.6x]
[2]; 72-hr incubation
  IC50: 10.8 µM
[3]
  IC50: 7 µM

## CNC(=O)OCc1c(COC(=O)NC)c(-c2ccc(F)cc2)n2c1Cc1ccccc1-2 [DA-1026, Methylcarbamic acid 3-(4-flourophenyl)-2-methylcarbamoyloxymethyl-8H-3a-aza-cyclopenta[a]inden-1-ylmethyl ester]
[1]
  IC50: 0.137 µM
CCRF-CEM/VBL
  IC50: 0.307 µM
  fold of cross-resistant, CCRF-CEM/VBL vs IC50 of the parent cell line: [2.2x]
CCRF-CEM/Taxol
  IC50: 0.284 µM
  fold of cross-resistant, CCRF-CEM/Taxol vs IC50 of the parent cell line: [2.1x]
[2]; 72-hr incubation
  IC50: 0.397 µM
[3]
  IC50: 0.744 µM

## CNC(=O)OCc1c(COC(=O)NC)c(-c2ccc(F)c(F)c2)n2c1Cc1ccccc1-2 [DA-1027, Methylcarbamic acid 3-(3,4-diflourophenyl)-2-methylcarbamoyloxymethyl-8H-3a-aza-cyclopenta[a]inden-1-ylmethyl ester]
[1]
  IC50: 0.639 µM
CCRF-CEM/VBL
  IC50: 0.632 µM
  fold of cross-resistant, CCRF-CEM/VBL vs IC50 of the parent cell line: [0.99x]
CCRF-CEM/Taxol
  IC50: 0.644 µM
  fold of cross-resistant, CCRF-CEM/Taxol vs IC50 of the parent cell line: [1.0x]
[2]; 72-hr incubation
  IC50: 0.878 µM
[3]
  IC50: 7.84 µM

## COc1ccc(-c2c(CO)c(CO)c3n2-c2ccccc2C3)cc1OC [DA-1097, (3-(3,4-Dimethoxyphenyl)-2-hydroxymethyl-8H-3a-aza-cyclopenta[a]inden-1-yl)methanol]
[1]; Homo sapiens, CCRF-CEM
  IC50: 1.04 µM
CCRF-CEM/VBL; Homo sapiens, CCRF-CEM
  IC50: 1.14 µM
CCRF-CEM/VBL
  fold of cross-resistant, CCRF-CEM/VBL vs IC50 of the parent cell line: [1.1x]
CCRF-CEM/Taxol; Homo sapiens, CCRF-CEM
  IC50: 1.95 µM
CCRF-CEM/Taxol
  fold of cross-resistant, CCRF-CEM/Taxol vs IC50 of the parent cell line: [1.87x]
[2]; [4]
  IC50: 4.09 µM
[3]; Homo sapiens
  IC50: 11.1 µM

## CNC(=O)OCc1c(COC(=O)NC)c2n(c1C)-c1ccccc1C2 [DA-1100, methyl carbamic acid 3-methyl-2-methylcarbamoyloxymethyl-8H-3a-aza-cyclopenta[a]inden-1-yl methyl ester]
[1]; Homo sapiens, CCRF-CEM
  IC50: 0.188 µM
CCRF-CEM/VBL; Homo sapiens, CCRF-CEM
  IC50: 0.126 µM
CCRF-CEM/VBL
  fold of cross-resistant, CCRF-CEM/VBL vs IC50 of the parent cell line: [0.67x]
CCRF-CEM/Taxol; Homo sapiens, CCRF-CEM
  IC50: 0.067 µM
CCRF-CEM/Taxol
  fold of cross-resistant, CCRF-CEM/Taxol vs IC50 of the parent cell line: [0.36x]
[2]; [4]
  IC50: 0.297 µM
[3]; Homo sapiens
  IC50: 0.355 µM

## CCc1c(COC(=O)NC)c(COC(=O)NC)c2n1-c1ccccc1C2 [DA-1101, methyl carbamic acid 3-ethyl-2-methyl carbamoyloxymethyl-8H-3a-aza-cyclopenta[a]inden-1-ylmethyl ester]
[1]; Homo sapiens, CCRF-CEM
  IC50: 0.068 µM
CCRF-CEM/VBL; Homo sapiens, CCRF-CEM
  IC50: 0.078 µM
CCRF-CEM/VBL
  fold of cross-resistant, CCRF-CEM/VBL vs IC50 of the parent cell line: [1.15x]
CCRF-CEM/Taxol; Homo sapiens, CCRF-CEM
  IC50: 0.099 µM
CCRF-CEM/Taxol
  fold of cross-resistant, CCRF-CEM/Taxol vs IC50 of the parent cell line: [1.46x]
[2]; [4]
  IC50: 0.707 µM
[3]; Homo sapiens
  IC50: 0.67 µM

## COc1ccc(-c2c(CO)c(CO)c3n2Cc2ccccc2C3)cc1 [DA-1106, [2-Hydroxymethyl-3-(4-methoxyphenyl)-5,10-dihydropyrrolo[1,2-b]isoquinolin-1-yl]methanol]
[1]; Homo sapiens, CCRF-CEM
  IC50: 0.228 µM
CCRF-CEM/VBL; Homo sapiens, CCRF-CEM
  IC50: 0.111 µM
CCRF-CEM/VBL
  fold of cross-resistant, CCRF-CEM/VBL vs IC50 of the parent cell line: [0.49x]
CCRF-CEM/Taxol; Homo sapiens, CCRF-CEM
  IC50: 0.232 µM
CCRF-CEM/Taxol
  fold of cross-resistant, CCRF-CEM/Taxol vs IC50 of the parent cell line: [1.02x]
[2]; [4]
  IC50: 1.03 µM
[3]; Homo sapiens
  IC50: 1.94 µM

## CNC(=O)OCc1c(COC(=O)NC)c2n(c1C)Cc1ccccc1C2 [DA-1108, methylcarbamic acid 3-methyl-1-methylcarbamoyloxymethyl-5,10-dihydro-pyrrolo[1,2-b]isoquinolin-2-ylmethyl ester]
[1]; Homo sapiens, CCRF-CEM
  IC50: 0.128 µM
CCRF-CEM/VBL; Homo sapiens, CCRF-CEM
  IC50: 0.076 µM
CCRF-CEM/VBL
  fold of cross-resistant, CCRF-CEM/VBL vs IC50 of the parent cell line: [0.59x]
CCRF-CEM/Taxol; Homo sapiens, CCRF-CEM
  IC50: 0.111 µM
CCRF-CEM/Taxol
  fold of cross-resistant, CCRF-CEM/Taxol vs IC50 of the parent cell line: [0.87x]
[2]; [4]
  IC50: 1.16 µM
[3]; Homo sapiens
  IC50: 1.68 µM

## CNC(=O)OCc1c(COC(=O)NC)c(-c2ccc(OC)cc2)n2c1Cc1ccccc1C2 [DA-1109, methylcarbamic acid 3-(4-methoxyphenyl)-2-methylcarbamoyloxymethyl-5,10-dihydr-pyrrolo[1,2-b]isoquinolin-1-ylmethyl ester]
[1]
  IC50: 0.184 µM
CCRF-CEM/VBL
  IC50: 0.111 µM
  fold of cross-resistant, CCRF-CEM/VBL vs IC50 of the parent cell line: [0.60x]
CCRF-CEM/Taxol
  IC50: 0.161 µM
  fold of cross-resistant, CCRF-CEM/Taxol vs IC50 of the parent cell line: [0.88x]
[2]; 72-hr incubation
  IC50: 1.11 µM
[3]
  IC50: 1.31 µM
